From a melting point compilation (Tetko et al.; mined from patent text by program, amines drawn as free bases though some values may be those of a salt)

Row | SMILES | melting point [°C]
1 | Cc1cc(SCc2cccc(C(F)(F)F)c2)c(C)cc1N | 58 to 60
2 | Cc1nsc(OCC(Cl)(Cl)Cl)c1S(N)(=O)=O | 140 to 142
3 | CC(C)Oc1ccc(CCCCOc2cc(CCC(=O)O)n(C(C)C)n2)c(Oc2ncc(C(F)(F)F)cc2Cl)c1 | 99.5 to 100
4 | CCOCc1nc2c(N)nc3cccnc3c2n1CC1(O)CCCC1 | 165 to 166
5 | CC(CCN)P(C)(=O)O (configuration not stated) | 68 to 75
6 | Cc1ccc(C(=O)C(=C2NCCCS2)[N+](=O)[O-])cc1 | 141 to 143
7 | COC(=O)CCCc1nc2c([nH]1)c(=O)n(C)c(=O)n2C | 200 to 204
8 | Cn1cc(OCC(F)(F)F)c(=O)c(-c2cccc(C(F)(F)F)c2)c1 | 97 to 99
9 | COCCOc1cc2cc(C(=O)OC)c(C(=O)OC)c(-c3ccncc3)c2cc1OC | 156 to 158
10 | COC(=O)c1[nH]c2c(C)ccc(C)c2c1S(C)=O (configuration not stated) | 127
11 | CC(=O)N1CC(C)c2c1cc(C)c(O)c2C (configuration not stated) | 204 to 205
12 | COc1ccccc1NC1CN(C(c2ccccc2)c2ccccc2)C1 | 75 to 77
13 | Oc1ccc(-c2ccc(C=C(Br)Br)s2)cc1 | 99 to 101
14 | COc1ccc(C2C(=O)NC(C)(C(C)C)C2=O)c(Cl)c1 (configuration not stated) | 130 to 140
15 | COC(=O)c1c(Cl)cccc1S(N)(=O)=O | 144 to 149
16 | C=C1N(c2ccccc2)C(=O)OC12CCNCC2 | 185 to 186
17 | CC(=O)N1CCN(c2ccc(Nc3nccc(-c4sc(NCCc5ccccc5)nc4C)n3)cc2)CC1 | 212 to 213
18 | COc1cc(COc2nn(-c3ccccc3)cc2CCC(=O)O)ccc1OCc1nc(-c2ccco2)oc1C | 161 to 162
19 | O=C1CN(C(=O)CN2CC(c3ccc(Cl)cc3)CC2=O)CCN1 (configuration not stated) | 205 to 207

Row | SMILES | melting point [°C]
20 | Cc1cccc2c(=O)n3c(nc12)C(=O)c1cc(F)ccc1-3 | 255 to 257
21 | CN1C(=O)N(c2cc(Cl)cc(Cl)c2)C(=O)[C@]12CN(CC(=O)O)C[C@H]2c1ccc(C#N)cc1 (relative stereo) | 220
22 | O=C1N(C(c2ccccc2)c2ccccc2)c2ccccc2C12COc1ccc(-c3cccnc3)cc12 (configuration not stated) | 204 to 207
23 | Cc1ccccc1NC(=O)CI | 145 to 146
24 | O=C(c1ccccc1)c1noc(CS(=O)c2ccccc2)n1 (configuration not stated) | 79 to 81
25 | CC(=O)Nc1ccc2c(c1)C(CN1CC=C(c3cn(C)c4cc(Cl)ccc34)CC1)CC2 (configuration not stated) | 189 to 193
26 | CN1CCc2[nH]c3ccc4sccc4c3c2C1 | 189
27 | COc1ccc(CCc2ccc(NC=O)cc2)cc1OC | 128 to 130
28 | CC(=O)Nc1cccc2c1CCCC2 | 158
29 | CN1CCN(c2ccc3c(ccc4c(=O)cc(C(=O)Nc5ccc(N6CCOCC6)cc5)oc43)c2)CC1 | 217 to 218
30 | CC1=NC(C)c2nnc(-c3ccc(Cl)cc3)n2-c2ccccc21 (configuration not stated) | 230
31 | COC(=O)c1ccc(-c2nc(NCc3ccc4c(c3)OCO4)c3c4c(sc3n2)CCCC4)cc1 | 198
32 | COCCOc1cc(C(F)(F)F)cc(Oc2ccc(CCNc3ncnc4nccnc34)cc2)n1 | 101 to 104
33 | O=c1c2cc(F)ccc2nc(NCc2ccccn2)n1-c1ccccc1Cl | 156 to 158
34 | CC(=O)c1cc(-c2ccc(C(C)(C)C)cc2)c2c(c1)C(C)(C)CCC2(C)C | 134
35 | CC1CN(c2ccc(Cl)cn2)N=C1N (configuration not stated) | 159 to 160
36 | O=S(=O)(c1ccc(Cl)cc1)C(c1cc(F)ccc1F)c1ccncc1Cl (configuration not stated) | 160 to 161
37 | CCN1CCCC(NC(=O)c2ccccc2Nc2ccnc3c(Cl)cccc23)C1 (configuration not stated) | 173 to 175
38 | COC(=O)c1ccc(CC23CCCN2C(=O)N(c2cc(Cl)c(O)c(Cl)c2)C3=O)cc1 (configuration not stated) | 105

Row | SMILES | melting point [°C]
39 | Nc1ncccc1OCc1cccc(Cl)c1F | 98 to 100
40 | Clc1ccccc1C1(c2ccc(-c3ccccc3)cc2)CO1 (configuration not stated) | 70
41 | C=C(c1cc(C(C)(C)C)cc2c1CCC2(C)C)c1sccc1C(=O)O | 148 to 150
42 | CCCN1C(=O)N2CC(Cc3ccccc3)N=C2c2[nH]c(C(C)OCC)nc21 (configuration not stated) | 165 to 170
43 | COc1cc2c(cc1OC)CC(=O)N(CCC=O)C=C2 | 95 to 96
44 | COc1nnc2n1C=Cc1cc(C)ccc1C2 | 148 to 149
45 | CN1CCN(Cc2ccc(Nc3ccnc4cc(C(F)(F)F)ccc34)cc2)CC1 | 218 to 220
46 | O=S1(=O)c2ccccc2NC(=S)c2ccc(C(F)(F)F)cc21 | 275 to 278
47 | Nc1nc(-c2ccccc2)c(CCBr)c2ncnn12 | 193 to 194
48 | COc1cc(C=S2C=CN=C2N)c([N+](=O)[O-])cc1OC (configuration not stated) | 125 to 130
49 | O=C(O)CNC(=O)CBr | 90 to 91
50 | O=C1CCC2=C(CCc3cc(Cl)cc(Cl)c32)N1 | 212 to 214
51 | CC(=O)NC(C)COc1c(C)cccc1C (configuration not stated) | 85 to 85.8
52 | COc1ccc(NC(=O)C23CC4CC(CC(C4)C2)C3)cc1 | 181 to 184
53 | O=C(Nc1ccc(SC(F)(F)F)cc1)c1cc(S(=O)(=O)c2ccccc2)c2ccccc2c1O | 271 to 272
54 | O=C(O)CC(CC(=O)O)c1ccc2oc3c(c2c1)CCCC3 | 165 to 170
55 | Clc1cnn2c(-c3ccccn3)ccnc12 | 141 to 143
56 | CC#CCOc1cc(OCC#CCC)ncn1 | 67.4
57 | CC(C)(C)OC(=O)NCC1(CC#N)CCCCC1 | 54 to 58

Now from value to compound:

Row | melting point [°C] | SMILES
58 | > 95 | CCCCc1nn(-c2cc(NC(=O)CC)ccc2Cl)c(C#N)c1Cc1ccc(-c2ccccc2S(=O)(=O)NC(=O)OC(C)(C)C)cc1F
59 | 104 | CCSc1cc(=O)c2c(O)cc(O)c([C@H]3CCN(C)C[C@H]3O)c2o1 (relative stereo)
60 | 209 to 211 | COc1cc2c(=O)n(CCCc3ccccc3)c3cc(OC)c(OC)cc3c2cc1OC
61 | 132 to 133 | CCOC(=O)c1c(S(=O)(=O)Cc2nccn2C)nc2cc(OC)c(OC)cc2c1-c1ccc(OC)c(OC)c1
62 | 140 to 142 | OCC(CCNC1CCC(c2ccc(OCc3ccccc3)cc2)CC1)c1ccccc1 (racemic)
63 | 182 to 183 | Cn1cc(-c2ccc(=O)n(Cc3cccc(-c4ncc(OCCO)cn4)c3)n2)cn1
64 | 149 to 150 | CCCCCCCCCCc1ccc2cc(SC)c(OS(=O)(=O)C(F)(F)F)cc2c1
65 | 144 | O=C(O)c1ncccc1OCc1ccc(Cl)cc1
66 | 162 | CCOC(=O)N1CCC(Nc2nc3ccccc3n2Cc2ccccn2)CC1
67 | 145 to 148 | CC(=O)SCCC(=O)N1CC[C@H](SC(C)=O)[C@H]1C(=O)O
68 | 118 to 120 | CCCc1nn(CC)c2c(=O)n(CCCOc3ccc(SC(C)(C)C(=O)O)cc3)c(C)nc12
69 | 133 to 135 | COc1cccc(-c2ccc3nnn(Cc4ccc5ncccc5c4)c3n2)c1
70 | 278 to 280 | Cc1nc2ccccn2c1C1=NNC(=O)CO1
71 | 162 to 166 | CCc1cc(NC(=O)N2CCN(c3cc(N4CCCC4)nc(N4CCCC4)n3)CC2)c(OC)nc1C
72 | 190 to 195 | CC(=O)OCc1nc2cc(Cl)c(CBr)cc2c(=O)[nH]1
73 | 137 to 138 | CCOC(=O)Nc1ccn2cc(C)nc2c1Br
74 | 116 to 118 | O=[N+]([O-])c1cc2c(Cl)ncnc2cc1F
75 | 253 to 255 | Nc1nnc(CCC2CCCCC2)s1
76 | 100 to 110 | COC(=O)C1Cc2ccccc2CC(C(=O)OC)C1=O (configuration not stated)
77 | 94 to 95 | CCOC(=O)C(NC(=O)OC(C)(C)C)c1csc(NC(=O)OCC(Cl)(Cl)Cl)n1 (configuration not stated)
78 | 176 to 178 | CC1(C)C(=O)N(Cl)C(C)(C)C(=O)N1Cl
79 | 279 to 285 | COC(=O)c1ccc2c(c1)CN(c1cc3c(cc1F)c(=O)c(C(=O)O)cn3C1CC1)C2
80 | > 330 | O=c1[nH]c2cc([N+](=O)[O-])ccc2c(O)c1-c1ccccc1

Row | melting point [°C] | SMILES
81 | 135 to 136 | C=Cc1c2c(c(C)c(C)c1N1CCN(c3ccc(OC)cc3)CC1)OC(C)(C)C2
82 | 209 to 210 | O=C(O)c1ccc(NCCOc2ccc(F)cc2)cc1
83 | 44 to 46 | CC(CCCC(=O)CCCC(C)(C(=O)O)c1ccccc1)(C(=O)O)c1ccccc1 (configuration not stated)
84 | 129 | ClCc1c(Cl)ccc2cc(Cl)cnc12
85 | 270 to 272 | COC(=O)c1cn2c(n1)COc1ccc([N+](=O)[O-])cc1-2
86 | 104 to 107 | CCC(CC)Nc1cc(C)nc(Nc2c(C)cc(C)cc2C)c1[N+](=O)[O-]
87 | 172 | CCOC(=O)c1ccc(N2CCC(NCC(O)COc3ccc(N=Nc4ccc([N+](=O)[O-])cc4)nc3)CC2)nc1 (configuration not stated)
88 | 182 | Sc1nc2ccccc2n1CCCN1CCN(C(c2ccccc2)c2ccccc2)CC1
89 | 114 | O=C(CCCC(=O)N1C(=O)OC[C@@H]1Cc1ccccc1)c1ccc(F)cc1
90 | 132 to 133 | COc1cccc(CC(=O)O)c1OCCCc1cn(-c2ccc(C#N)nn2)nc1C(C)C
91 | 117 to 118 | COc1ccc(-c2nc(-c3ccccc3)sc2-c2ccc(OC)cc2)cc1
92 | 148 | CCC(=O)NC1=NN(c2ccccc2)C(c2ccccc2)C1 (configuration not stated)
93 | 124 to 128 | CC(=O)Oc1ccc2c(c1)Sc1cc(N(C)C)ccc1N2C(C)=O
94 | 251 to 256 | O=C(O)c1ccc(Cn2ccc(OCc3ccccc3)c(Br)c2=O)cc1
95 | 158 to 160 | COc1ccc(S(=O)(=O)Nc2cccc3c2Nc2ccccc2S3)cc1
96 | 65 to 67 | COCC1=C(c2ccccc2)C(=O)N(C(C)(C)C(=O)OC(C)(C)C)CO1
97 | 107 to 108 | CCCN(CCC)C(=O)CNc1cc(C)nc(-c2ccccc2)n1
98 | 125 | Cc1cccc(NC(=O)NCC(=O)N(CC(=O)OC(C)(C)C)c2ccc(Cl)cc2)c1
99 | 132 to 133 | CCOC(=O)c1cc2cccc(NC(=O)OC(C)(C)C)c2[nH]1
100 | 158 to 160 | C[C@@H]1CN(c2cccc(-c3cn[nH]c3N)c2)C[C@H](C)O1
101 | 185 to 187 | CCCNc1ncc2c(=O)[nH]c(-c3ccccc3OCCC)nc2n1
102 | 205 | CC1=CC(=O)C(N)=CC1=N
